Test results as given in PMC4533973, “Synthesis and Evaluation of Chloramphenicol Homodimers: Molecular Target, Antimicrobial Activity, and Toxicity against Human Cells” (PLoS ONE, 2015).

Columns and labels:
[1] = system: post-translocation ribosomal complex (complex C) derived from E. coli; assay: Inhibition of peptide-bond formation (puromycin reaction, AcPhe-puromycin synthesis); type: biochemical; details: for k6 / k6/k7 / k7: S1 Table; for activity compared to CAM: ranking by K i*; for Ki: 25°C, buffer A; for k off: nonlinear regression of k eq
Protocol: The inhibitory effect of CAM dimers on peptide-bond formation was studied using the puromycin reaction, a model reaction between puromycin and a post-translocation ribosomal complex (complex C) derived from E. coli. Since puromycin, a pseudo-substrate of PTase which binds to the A-site of the catalytic center, was present in excess, the reaction obeyed first-order kinetics. The first-order rate constant, k obs, at each concentration of puromycin was determined by fitting the x values into Eq 1, ln100/100−x=kobst (1) where x is the product AcPhe-puromycin, expressed as the percentage of complex C added in the reaction mixture, and t is the time of the reaction.
A representative time plot obtained at 400 μM puromycin, in the absence of inhibitor, is illustrated in Fig 3A (upper line) and, as expected, is characterized by linearity. However, when the reaction proceeded in the presence of a CAM dimer, e.g. compound 5, the time plots were characterized by two unique features that distinguish them from a typical kinetic behavior. […] Second, the slopes of both progress curves varied as a function of the inhibitor concentration (Fig 3A, four lower curves). […] These kinetic results are consistent with compound 5 operating through an induced fit mechanism (Fig 3C), in which the inhibitor first binds rapidly to complex C to form the encounter complex CI, which then undergoes a slow conformational change to produce a final, tighter complex C*I. Corroborative evidence for the consistency of this model is provided by the hyperbolic shape of the equilibration plots (k eq versus [I]), in which k eq represents the apparent rate constant for the attainment of equilibrium among C, CI, and C*I (Fig 3B). If one-step mechanism of inhibition was applicable (C + I ⇄ C*I), k eq should be a linear function of [I] [27]. […] Because the isomerization constant k on/k off was calculated to be 3.6, the inhibition process was finally associated with high overall inhibition of peptide-bond formation (Ki* = 0.3 μM; S1 Fig, panel C). In addition, the slow k off rate (0.64 min^-1) provided prolonged residence time for compound 5 at the ribosome, a behavior potentially predicting good efficacy in vivo [28].
The puromycin reaction, i.e. the reaction between complex C and excess puromycin (S), was carried out at 25°C in buffer A [100 mM Tris-HCl pH 7.2, 6 mM (CH3COO)2Mg, 100 mM NH4Cl and 6 mM 2-mercaptoethanol]. Under these conditions, the puromycin reaction obeys C + S ⇄KS CS→kcat C^′ + S pseudo-first-order kinetics and was analyzed as previously described.
In the presence of CAM dimers, biphasic semi-logarithmic time plots were obtained. The slope of the straight line through the origin was seen as the value of the apparent rate constant, k obs(early), at the early phase of the reaction. Similarly, the slope of the second straight line was taken as the apparent rate constant, k obs(late), at the late phase of the puromycin reaction.

[2] = system: P. aeruginosa (GRE5288); assay: Antibacterial activity (growth inhibition, EC50); type: cell-based, Pseudomonas aeruginosa; details: Pseudomonas aeruginosa; TSB medium; clinical isolate with MexAB-OprM and MexXY efflux; read-out: EC50
From the text: (§1) A.S. Mankin (University of Illinois). E. coli ΔtolC strain BL21 DE3 with impaired AcrAB-TolC, a proton-dependent MDR efflux pump causing multidrug resistance, was offered by Dr D.N. Wilson (University of Munich) and included in our study to test if this mechanism of resistance affects the efficacy of CAM dimers. […] I. Spiliopoulou (National Reference Laboratory for Staphylococci, School of Medicine, University of Patras, Greece). Finally, E. coli strain Rosetta(DE3)pLysS, containing a chloramphenicol resistant gene in the pLysS plasmid, was purchased from Novagen and was also included in our study. Briefly, S. aureus or E. coli cells (200 μl of a 0.700 OD560 preculture) containing wild-type or mutant ribosomes were added in 3.8 ml of LB (Luria-Bertani) medium and grown at 37°C in the presence or absence of CAM or CAM dimers until the optical density of the control culture (grown in the absence of drug) reached the value 0.700 at 560 nm. For E. faecium and P. aeruginosa cultures, TSB (Tryptic Soy Broth) medium was used, instead of LB medium, in order to achieve exponential doubling times between 25 and 35 minutes. From dose-response curves, the half-maximal effective concentration (EC50) for each compound and strain was estimated. EC50 represents the molar concentration of a compound that produces 50% of the maximal possible effect. The EC50 values were mathematically determined by non linear regression fitting of the observed culture optical-density values, expressed as the percentage of 0.700 (y), into Hill Equation, y=min+max−min/1+(x/EC50)^−n where min and max are the lowest and highest observed values of the culture optical density, respectively, x the concentration of the tested compound, and n the Hill coefficient that represents the largest absolute value of the curve slope. EC50 is equal to the x- value of the sigmoid’s midpoint. Fitting was performed using the Four Parameter Logistic Curve of the SigmaPlot Program Version 11.0 (Systat Software, Inc) for Exact Graphs and Data Analysis.

[3] = system: E. coli (A2503C); assay: Antibacterial activity (growth inhibition, EC50); type: cell-based, Escherichia coli; details: Escherichia coli
From the text: as §1

[4] = system: E. coli Rosetta(DE3)pLysS; assay: Antibacterial activity (growth inhibition, EC50); type: cell-based, Escherichia coli; details: Escherichia coli
From the text: as §1

[5] = system: E. coli (A2058G); assay: Antibacterial activity (growth inhibition, EC50); type: cell-based, Escherichia coli; details: Escherichia coli
From the text: as §1

[6] = system: E. coli (ΔtolC); assay: Antibacterial activity (growth inhibition, EC50); type: cell-based, Escherichia coli; details: Escherichia coli, BL21-DE3
From the text: as §1

[7] = system: E. coli (WT); assay: Antibacterial activity (growth inhibition, EC50); type: cell-based, Escherichia coli; details: for EC50: Escherichia coli, LB medium, 37°C, OD560; for EC50(cell growth)/IC50(puro): wild-type E. coli, IC50(puro) calculated from Ki* at 2 mM puromycin
From the text: as §1

[8] = system: S. aureus (WT); assay: Antibacterial activity (growth inhibition, EC50); type: cell-based; details: Staphylococcus aureus; LB medium, 37°C, OD560; read-out: EC50
From the text: as §1

[9] = system: MRSA (GRE2272); assay: Antibacterial activity (growth inhibition, EC50); type: cell-based; details: Staphylococcus aureus, LB medium, 37°C, OD560, read-out: EC50
From the text: as §1

[10] = system: E. faecium (GRE5152); assay: Antibacterial activity (growth inhibition, EC50); type: cell-based; details: Enterococcus faecium; TSB medium, 37°C, OD560; read-out: EC50
From the text: as §1

[11] = system: MRSA (GRE2691); assay: Antibacterial activity (growth inhibition, EC50); type: cell-based; details: Staphylococcus aureus, LB medium, 37°C, OD560, read-out: EC50
From the text: as §1

[12] = overall inhibition constant (CI + C*I)

| Compound | k6 [1] [min⁻¹] | k6/k7 [1] | k7 [1] [min⁻¹] | EC50 [2] [µM] | melting point [°C] | EC50 [3] [µM] | EC50 [4] [µM] | EC50 [5] [µM] | EC50 [6] [µM] | EC50 [7] [µM] | EC50 [8] [µM] | EC50 [9] [µM] | EC50 [10] [µM] | EC50 [11] [µM] | activity compared to CAM [1] | EC50(cell growth)/IC50(puro) [7] | Ki ([1]; encounter complex CI) [µM] | k off [1] [s⁻¹] | Ki [1, 12] [µM] |
| --- | --- | --- | --- | --- | --- | --- | --- | --- | --- | --- | --- | --- | --- | --- | --- | --- | --- | --- | --- |
| O=C(O)CCCCC(=O)N[C@H](CO)[C@H](O)c1ccc([N+](=O)[O-])cc1 [Compound 10, 6-(((1R,2R)-1,3-dihydroxy-1-(4-nitrophenyl)propan-2-yl)amino)-6-oxohexanoic acid] | 2.52 ± 0.40 | 2.25 ± 0.27 | 1.11 ± 0.12 |  |  |  |  |  |  |  |  |  |  |  |  |  |  |  |  |
| O=C(/C=C/c1ccc(/C=C/C(=O)N[C@H](CO)[C@H](O)c2ccc([N+](=O)[O-])cc2)cc1)N[C@H](CO)[C@H](O)c1ccc([N+](=O)[O-])cc1 [Compound 8, N,N^’-Bis((1R,2R)-1,3-dihydroxy-1-(4-nitrophenyl)propan-2-yl)-1,4-phenylene diacryldiamide] |  |  |  | > 100 | 144 to 145 | > 200 | > 200 | > 200 | > 200 | > 200 | > 200 | > 200 | > 200 | > 200 | no activity |  |  |  |  |
| O=C(/C=C/C(=O)N[C@H](CO)[C@H](O)c1ccc([N+](=O)[O-])cc1)N[C@H](CO)[C@H](O)c1ccc([N+](=O)[O-])cc1 [Compound 2, N^1,N^4-Bis((1R,2R)-1,3-dihydroxy-1-(4-nitrophenyl)propan-2-yl)fumaramide] |  |  |  | > 100 | 207 to 208 | > 200 | > 200 | > 200 | > 200 | > 200 | 44.4 ± 2.9 | > 200 | > 200 | > 200 | comparable | >44.4 | 2.7 ± 0.25 | 0.0117 ± 0.00083 | 0.75 ± 0.06 |
| O=C(CCCC(=O)N[C@H](CO)[C@H](O)c1ccc([N+](=O)[O-])cc1)N[C@H](CO)[C@H](O)c1ccc([N+](=O)[O-])cc1 [Compound 3, N^1,N^5-Bis((1R,2R)-1,3-dihydroxy-1-(4-nitrophenyl)propan-2-yl)glutaramide] |  |  |  | 42.4 ± 8.7 |  | 68.1 ± 13.8 | 65.1 ± 6.6 | 47.3 ± 6.9 | 43.7 ± 5.2 | 52.4 ± 6.8 | 17.4 ± 1.3 | 20.8 ± 2.5 | 69.8 ± 14.8 | 27.2 ± 3.4 | lower | 7.28 ± 1.08 | 4.5 ± 0.36 | 0.0167 ± 0.0005 | 1.2 ± 0.09 |
| O=C(CCCCCCC(=O)N[C@H](CO)[C@H](O)c1ccc([N+](=O)[O-])cc1)N[C@H](CO)[C@H](O)c1ccc([N+](=O)[O-])cc1 [Compound 6, N^1,N^8-Bis((1R,2R)-1,3-dihydroxy-1-(4-nitrophenyl)propan-2-yl)octane-diamide] |  |  |  | > 100 | 131 to 132 | > 200 | > 200 | > 200 | > 200 | > 200 | 49.6 ± 5.4 | > 200 | > 200 | > 200 | lower | >14.5 | 10.5 ± 0.9 | 0.0133 ± 0.00067 | 2.3 ± 0.2 |
| O=C(CCCCCCCC(=O)N[C@H](CO)[C@H](O)c1ccc([N+](=O)[O-])cc1)N[C@H](CO)[C@H](O)c1ccc([N+](=O)[O-])cc1 [Compound 7, N^1,N^9-Bis((1R,2R)-1,3-dihydroxy-1-(4-nitrophenyl)propan-2-yl)nonanediamide] |  |  |  | > 100 | 137 to 139 | > 200 | > 200 | > 200 | > 200 | > 200 | 72.7 ± 11.8 | > 200 | > 200 | > 200 | lower | >11.9 | 12 ± 1.2 | 0.014 ± 0.001 | 2.8 ± 0.27 |
| O=C(O)CCCC(=O)N[C@H](CO)[C@H](O)c1ccc([N+](=O)[O-])cc1 [Compound 9, 5-(((1R,2R)-1,3-dihydroxy-1-(4-nitrophenyl)propan-2-yl)amino)-5-oxopentanoic acid] | 2.50 ± 0.33 | 1.53 ± 0.18 | 1.63 ± 0.12 |  |  |  |  |  |  |  |  |  |  |  |  |  |  |  |  |
| O=C(O)c1ccc(C(=O)N[C@H](CO)[C@H](O)c2ccc([N+](=O)[O-])cc2)cc1 [Compound 11, 4-(((1R,2R)-1,3-dihydroxy-1-(4-nitrophenyl)propan-2-yl)carbamoyl)benzoic acid] | 2.31 ± 0.48 | 1.63 ± 0.31 | 1.42 ± 0.13 |  |  |  |  |  |  |  |  |  |  |  |  |  |  |  |  |
| O=C(CC(=O)N[C@H](CO)[C@H](O)c1ccc([N+](=O)[O-])cc1)N[C@H](CO)[C@H](O)c1ccc([N+](=O)[O-])cc1 [Compound 1, N^1,N^3-Bis((1R,2R)-1,3-dihydroxy-1-(4-nitrophenyl)propan-2-yl)malonamide] |  |  |  | > 100 | 142 to 143 | > 200 | > 200 | > 200 | > 200 | > 200 | 32.2 ± 1 | > 200 | > 200 | > 200 | comparable | >55.5 | 2.4 ± 0.18 | 0.01 ± 0.00083 | 0.6 ± 0.05 |
